# Read-outs that look alike come from different tables or passages of the source.
# Legend:
# advanced solid tumors [1] = experiment: Preliminary antitumor activity, RECIST version 1.1; format: in vivo, human; settings: for PFS estimate at 6 months / Median PFS / Median duration of overall response / PFS estimate at 9 months: [95% CI]; for Median PFS: Kaplan–Meier
# Source text: Evaluation of tumor response to determine the objective response rate (ORR), progression‐free survival (PFS), and duration of response was based on RECIST version 1.1 criteria.
# All data were summarized and tabulated by dose cohort. Categoric data were summarized in terms of frequency counts and percentages. Continuous data were summarized using descriptive statistics, including number of observations, mean, standard deviation, median, minimum, and maximum. No formal statistical analysis was performed for efficacy variables, which were all exploratory in nature. ORR was defined as the proportion of patients with a confirmed partial response (PR) or complete response (CR). Duration of response was defined as time from a patient's initial objective response to the first date of disease progression (PD) or death. The overall disease control rate was defined as the proportion of patients with CR, PR, or stable disease (SD). […] PFS was estimated using the Kaplan–Meier method. Efficacy analyses are presented with two‐sided exact 95% binomial CI.
# advanced solid tumors [2] = settings: cited from earlier work
# [3] = Pharmacokinetics of teliso‐v conjugate and MMAE, noncompartmental; format: in vivo, human; settings: for AUCinf, conjugate / Cmax, conjugate: geometric mean (%CV); for t1/2, conjugate: harmonic mean (min-max); for Tmax, conjugate: median (min-max)
# Procedure: PK samples were also collected on cycles 2 and 4 predose and approximately 30 minutes after the end of infusion on day 1. PK parameters such as peak concentration (Cmax), time to peak concentration, area under the concentration‐time curve (AUC), and terminal half‐life (t1/2) were determined using noncompartmental methods.
# [4] = total, N = 9, listed as telisotuzumab vedotin
# [5] = total, N = 9, listed as teliso-v
# [6] = first administration, cycle 1, across 2.4 and 2.7 mg/kg
substance,measurement,setting,value
"Teliso‐v: antibody‐drug conjugate: anti–c‐Met humanized monoclonal antibody ABT‐700 coupled to monomethyl auristatin E through a valine‐citrulline linker, drug:antibody ratio approximately three",Complete response,"advanced solid tumors [1]; 2.4 mg/kg Q3W, n = 3",0 n (%)
same,Disease control rate,"advanced solid tumors [1]; 2.4 mg/kg Q3W, n = 3",3 (100) [NA] n (%) [95% CI]
same,Objective response rate,"advanced solid tumors [1]; 2.4 mg/kg Q3W, n = 3",0 n (%)
same,Partial response,"advanced solid tumors [1]; 2.4 mg/kg Q3W, n = 3",0 n (%)
same,Progressive disease,"advanced solid tumors [1]; 2.4 mg/kg Q3W, n = 3",0 n (%)
same,Stable disease,"advanced solid tumors [1]; 2.4 mg/kg Q3W, n = 3",3 (100) n (%)
same,PFS estimate at 6 months,"advanced solid tumors [1]; 2.4 mg/kg Q3W, n = 3",33.3 [0.9–77.4] %
same,Median PFS,"advanced solid tumors [1]; 2.4 mg/kg Q3W, n = 3",4.1 [2.8–7.1] months
same,Complete response,"advanced solid tumors [1]; 2.7 mg/kg Q3W, n = 6",0 n (%)
same,Objective response rate,"advanced solid tumors [1]; 2.7 mg/kg Q3W, n = 6",2 (33) n (%)
same,Partial response,"advanced solid tumors [1]; 2.7 mg/kg Q3W, n = 6",2 (33) n (%)
same,Progressive disease,"advanced solid tumors [1]; 2.7 mg/kg Q3W, n = 6",1 (17) n (%)
same,Stable disease,"advanced solid tumors [1]; 2.7 mg/kg Q3W, n = 6",3 (50) n (%)
same,Median duration of overall response,"advanced solid tumors [1]; 2.7 mg/kg Q3W, n = 6",8.2 [7.2–9.1] months
same,PFS estimate at 6 months,"advanced solid tumors [1]; 2.7 mg/kg Q3W, n = 6",83.3 [27.3–97.5] %
same,PFS estimate at 9 months,"advanced solid tumors [1]; 2.7 mg/kg Q3W, n = 6",83.3 [27.3–97.5] %
same,Median PFS,"advanced solid tumors [1]; 2.7 mg/kg Q3W, n = 6",10.4 [1.2–12.0] months
same,Patients with PD,advanced solid tumors [1]; N = 9,one
same,Patients with SD,advanced solid tumors [1]; N = 9,six
same,Patients with PR,"advanced solid tumors [1]; N = 9, both at 2.7‐mg/kg (urothelial, ovarian cancer)",Two
same,Reduction of sum of the tumor size,"advanced solid tumors [1]; single patient, 27 weeks after teliso-v initiation",73%
same,Sum of the tumor size,"advanced solid tumors [1]; single patient, lung metastasis, 27 weeks after teliso-v initiation, baseline 64.4 mm",17.3 mm
same,Patients with reduction in tumor size from baseline,"advanced solid tumors [1]; thymic cancer, NSCLC, ovarian cancer, urothelial cancer",Four
same,Complete response,"advanced solid tumors [1]; total, N = 9",0 n (%)
same,Objective response rate,"advanced solid tumors [1]; total, N = 9",2 (22) n (%)
same,Overall disease control rate,"advanced solid tumors [1]; total, N = 9",89%
same,PFS estimate at 6 months,"advanced solid tumors [1]; total, N = 9",64.0 [23.8–86.6] %
same,PFS estimate at 9 months,"advanced solid tumors [1]; total, N = 9",48.0 [12.3–76.9] %
same,Median PFS,"advanced solid tumors [1]; total, N = 9",7.1 [1.2–10.4] months
same,Median PFS,advanced solid tumors [1]; [4],7.1 months
same,Median duration of overall response,advanced solid tumors [1]; [5],8.2 [7.2–9.1] months
same,Median duration of overall response,"advanced solid tumors [1]; total, N = 9, listed as teliso‐v",8.2 months
same,Partial response,advanced solid tumors [1]; [5],2 (22) n (%)
same,Progressive disease,advanced solid tumors [1]; [5],1 (11) n (%)
same,Stable disease,advanced solid tumors [1]; [5],6 (67) n (%)
same,Partial response,advanced solid tumors [1]; [4],22%
same,Progressive disease,advanced solid tumors [1]; [4],11%
same,Stable disease,advanced solid tumors [1]; [4],67%
same,Tolerability,advanced solid tumors [2]; 2.7 mg/kg Q3 W,well tolerated
same,Patients with PR,advanced solid tumors [2]; c‐Met‐positive NSCLC,three of 14
same,Recommended phase 2 dose (RP2D),"advanced solid tumors [2]; every 3 weeks, preceding phase 1 study outside of Japan",2.7 mg/kg
same,Frequency of corneal epithelium disorder,"advanced solid tumors [2]; non‐Japanese patients, nine of 116, teliso‐v monotherapy, ref data on file",7.8%
same,Dose proportionality of systemic exposure,"[3]; 2.4 and 2.7 mg/kg, cycle 1",approximately dose proportional
same,t1/2,"[3]; N = 9, both dose levels",72 to 96 h
same,"AUCinf, conjugate","[3]; cycle 1, 2.4 mg/kg IV, n = 3",4437 (19) µg*h/mL
same,"Cmax, conjugate","[3]; cycle 1, 2.4 mg/kg IV, n = 3",55.5 (26) µg/mL
same,"t1/2, conjugate","[3]; cycle 1, 2.4 mg/kg IV, n = 3",4.18 (3.8–4.7) days
same,"Tmax, conjugate","[3]; cycle 1, 2.4 mg/kg IV, n = 3",1 (1–1) h
same,"AUCinf, conjugate","[3]; cycle 1, 2.7 mg/kg IV, n = 6",5202 (23) µg*h/mL
same,"Cmax, conjugate","[3]; cycle 1, 2.7 mg/kg IV, n = 6",63.0 (22) µg/mL
same,"t1/2, conjugate","[3]; cycle 1, 2.7 mg/kg IV, n = 6",2.91 (2.5–3.9) days
same,"Tmax, conjugate","[3]; cycle 1, 2.7 mg/kg IV, n = 6",1 (1–1) h
same,"AUC from zero to infinity, preliminary geometric mean",[3]; [6],"4,400–5,200 µg*h/ml"
same,"Serum Cmax, preliminary geometric mean",[3]; [6],55.5 to 63.0 µg/mL
same,Accumulation in cycle 3,[3]; multiple dosing Q3 W,1.1–1.2 fold

# From paper PMC7982615, “Phase 1 study of telisotuzumab vedotin in Japanese patients with advanced solid tumors” (Cancer Medicine, 2021)
